Data taken from patent US8435980B2 (AbbVie Inc., priority 2009, dated 2013).

molecular target: T1, Cdc7 (BEV coexpressed huCDC7/DBF4) (Homo sapiens, UniProt O00311); experiment: Cdc7 enzyme inhibition assay ([33P]ATP, biotinylated peptide substrate, FlashPlate); assay type: biochemical; details: Table 3; enzyme inhibition data (Ki)
T1 construct: made in house; host or cells: BEV (baculovirus expression vector) co-expression; insect cells are implied but no cell line is named
Method: Cdc7 (BEV coexpressed huCDC7/DBF4) is prepared internally. Cdc7 assays are conducted as follows with final concentrations as listed. […] Reactions are quenched after 1 hr by the addition of 90 μL stop buffer (50 mM EDTA, 2M NaCl). […] (Ki) for exemplary compounds.

T1 sequence (O00311 whole entry): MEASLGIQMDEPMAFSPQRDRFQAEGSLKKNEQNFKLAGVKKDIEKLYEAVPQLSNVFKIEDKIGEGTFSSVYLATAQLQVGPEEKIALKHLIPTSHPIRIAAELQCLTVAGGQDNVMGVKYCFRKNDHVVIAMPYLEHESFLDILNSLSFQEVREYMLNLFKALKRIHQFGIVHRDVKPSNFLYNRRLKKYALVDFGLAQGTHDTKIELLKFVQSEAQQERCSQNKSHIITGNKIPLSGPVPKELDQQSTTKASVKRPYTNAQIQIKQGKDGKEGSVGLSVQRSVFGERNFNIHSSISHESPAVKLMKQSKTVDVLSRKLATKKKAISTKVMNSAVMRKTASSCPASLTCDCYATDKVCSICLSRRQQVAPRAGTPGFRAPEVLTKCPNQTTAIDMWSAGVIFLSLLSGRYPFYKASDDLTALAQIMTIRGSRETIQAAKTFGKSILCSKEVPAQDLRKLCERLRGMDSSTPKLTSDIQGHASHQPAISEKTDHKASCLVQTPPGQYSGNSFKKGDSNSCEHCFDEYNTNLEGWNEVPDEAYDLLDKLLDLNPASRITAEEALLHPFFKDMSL
T1 sequence (Q9UBU7 whole entry partner): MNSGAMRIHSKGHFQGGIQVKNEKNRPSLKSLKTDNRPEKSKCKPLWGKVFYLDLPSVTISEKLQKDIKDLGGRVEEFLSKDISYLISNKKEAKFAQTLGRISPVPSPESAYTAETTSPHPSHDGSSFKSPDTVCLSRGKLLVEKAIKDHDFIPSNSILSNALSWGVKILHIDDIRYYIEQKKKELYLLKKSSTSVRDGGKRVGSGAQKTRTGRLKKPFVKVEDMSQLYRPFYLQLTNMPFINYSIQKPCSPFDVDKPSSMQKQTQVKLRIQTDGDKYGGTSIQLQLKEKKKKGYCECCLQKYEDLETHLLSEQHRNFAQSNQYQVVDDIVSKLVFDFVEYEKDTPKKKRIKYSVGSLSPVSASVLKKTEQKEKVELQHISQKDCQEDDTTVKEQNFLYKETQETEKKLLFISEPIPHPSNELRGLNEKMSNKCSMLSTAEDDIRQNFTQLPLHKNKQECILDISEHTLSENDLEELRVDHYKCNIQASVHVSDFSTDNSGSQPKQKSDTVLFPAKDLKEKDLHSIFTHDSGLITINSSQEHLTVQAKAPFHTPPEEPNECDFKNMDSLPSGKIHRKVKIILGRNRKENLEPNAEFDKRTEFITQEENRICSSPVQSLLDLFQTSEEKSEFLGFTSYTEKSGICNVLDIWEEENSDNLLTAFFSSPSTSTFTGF

| Structure (SMILES) | Ki [nM] |
| --- | --- |
| CN1CCCC(C(=O)NC2CCCC(Nc3cc(-c4c[nH]c5ncccc45)cc(Cl)n3)C2)C1 (stereo not drawn) [Example 348, N-(3-{[6-chloro-4-(1H-pyrrolo[2,3-b]pyridin-3-yl)pyridin-2-yl]amino}cyclohexyl)-1-methylpiperidine-3-carboxamide] | 10 to 100 |
| CN(C)C1(C(=O)NC2CCCC(Nc3cc(-c4c[nH]c5ncccc45)cc(Cl)n3)C2)CCC1 (stereo not drawn) [Example 349, N-(3-{[6-chloro-4-(1H-pyrrolo[2,3-b]pyridin-3-yl)pyridin-2-yl]amino}cyclohexyl)-1-(dimethylamino)cyclobutanecarboxamide] | 10 to 100 |
| C[C@@H](C(=O)NC1CCCC(Nc2cc(-c3c[nH]c4ncccc34)cc(Cl)n2)C1)N(C)C (stereo partly drawn) [Example 350, N-(3-{[6-chloro-4-(1H-pyrrolo[2,3-b]pyridin-3-yl)pyridin-2-yl]amino}cyclohexyl)-N~2~,N~2~-dimethyl-L-alaninamide] | < 10 |
| O=C(CNCCO)N[C@H]1CC[C@H](Nc2cc(-c3c[nH]c4ncccc34)cc(Cl)n2)CC1 [Example 352, N-(trans-4-{[6-chloro-4-(1H-pyrrolo[2,3-b]pyridin-3-yl)pyridin-2-yl]amino}cyclohexyl)-N~2~-(2-hydroxyethyl)glycinamide] | < 10 |
| O=C1c2ccccc2C(=O)N1CCS(=O)(=O)NC1CCCC(Nc2cc(-c3c[nH]c4ncccc34)cc(Cl)n2)C1 (stereo not drawn) [Example 353, N-(3-{[6-chloro-4-(1H-pyrrolo[2,3-b]pyridin-3-yl)pyridin-2-yl]amino}cyclohexyl)-2-(1,3-dioxo-1,3-dihydro-2H-isoindol-2-yl)ethanesulfonamide] | < 10 |
| CC(C)(C)CNCC(=O)N[C@H]1CC[C@H](Nc2cc(-c3c[nH]c4ncccc34)cc(Cl)n2)CC1 [Example 355, N-(trans-4-{[6-chloro-4-(1H-pyrrolo[2,3-b]pyridin-3-yl)pyridin-2-yl]amino}cyclohexyl)-N~2~-(2,2-dimethylpropyl)glycinamide] | < 10 |
| CCN(CCO)CC(=O)N[C@H]1CC[C@H](Nc2cc(-c3c[nH]c4ncccc34)cc(Cl)n2)CC1 [Example 356, N-(trans-4-{[6-chloro-4-(1H-pyrrolo[2,3-b]pyridin-3-yl)pyridin-2-yl]amino}cyclohexyl)-N~2~-ethyl-N~2~-(2-hydroxyethyl)glycinamide] | < 10 |
| Clc1cc(-c2c[nH]c3ncccc23)cc(N[C@H]2CC[C@H](NC3CCNCC3)CC2)n1 [Example 357, trans-N-[6-chloro-4-(1H-pyrrolo[2,3-b]pyridin-3-yl)pyridin-2-yl]-N′-(piperidin-4-yl)cyclohexane-1,4-diamine] | < 10 |

Next, values leading:

| Ki [nM] | Structure (SMILES) |
| --- | --- |
| < 10 | O=C(NC1CCCC(Nc2cc(-c3c[nH]c4ncccc34)cc(Cl)n2)C1)C1CCNCC1 (stereo not drawn) [Example 344, N-(3-{[6-chloro-4-(1H-pyrrolo[2,3-b]pyridin-3-yl)pyridin-2-yl]amino}cyclohexyl)piperidine-4-carboxamide] |
| < 10 | O=C(NC1CCCC(Nc2cc(-c3c[nH]c4ncccc34)cc(Cl)n2)C1)C1CCCNC1 (stereo not drawn) [Example 345, N-(3-{[6-chloro-4-(1H-pyrrolo[2,3-b]pyridin-3-yl)pyridin-2-yl]amino}cyclohexyl)piperidine-3-carboxamide] |
| < 10 | CN1CCC(C(=O)NC2CCCC(Nc3cc(-c4c[nH]c5ncccc45)cc(Cl)n3)C2)C1 (stereo not drawn) [Example 346, N-(3-{[6-chloro-4-(1H-pyrrolo[2,3-b]pyridin-3-yl)pyridin-2-yl]amino}cyclohexyl)-1-methylpyrrolidine-3-carboxamide] |
| < 10 | CN1CCC(C(=O)NC2CCCC(Nc3cc(-c4c[nH]c5ncccc45)cc(Cl)n3)C2)CC1 (stereo not drawn) [Example 347, N-(3-{[6-chloro-4-(1H-pyrrolo[2,3-b]pyridin-3-yl)pyridin-2-yl]amino}cyclohexyl)-1-methylpiperidine-4-carboxamide] |
